Test results: ChEMBL document CHEMBL3808336, “Pyrazolylbenzo[d]imidazoles as new potent and selective inhibitors of carbonic anhydrase isoforms hCA IX and XII” (Bioorg Med Chem, 2016)

Legend:
Carbonic anhydrase 1 = Carbonic anhydrase 1 (Homo sapiens, UniProt P00915); assay: Inhibition of recombinant human carbonic anhydrase 1 preincubated for 15 min to 72 hrs by stopped flow CO2 hydrase assay
Carbonic anhydrase 2 = Carbonic anhydrase 2 (Homo sapiens, UniProt P00918); assay: Inhibition of recombinant human carbonic anhydrase 2 preincubated for 15 min to 72 hrs by stopped flow CO2 hydrase assay
Carbonic anhydrase 9 = Carbonic anhydrase 9 (Homo sapiens, UniProt Q16790); assay: Inhibition of recombinant human carbonic anhydrase 9 preincubated for 15 min to 72 hrs by stopped flow CO2 hydrase assay

Carbonic anhydrase 1, sequence (P00915 whole entry): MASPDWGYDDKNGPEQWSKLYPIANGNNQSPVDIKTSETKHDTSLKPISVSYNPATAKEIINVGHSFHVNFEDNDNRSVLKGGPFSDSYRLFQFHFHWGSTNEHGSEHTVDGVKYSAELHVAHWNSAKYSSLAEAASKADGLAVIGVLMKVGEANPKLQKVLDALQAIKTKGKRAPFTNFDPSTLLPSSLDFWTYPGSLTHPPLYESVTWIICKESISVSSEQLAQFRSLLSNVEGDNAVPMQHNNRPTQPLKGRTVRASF

SMILES | Ki (Carbonic anhydrase 1) [µM] | Ki (Carbonic anhydrase 2) [µM] | Ki (Carbonic anhydrase 9) [µM]
Cc1ccc(-c2nn(-c3ccccc3)cc2-c2nc3ccccc3[nH]2)cc1 | > 40 | > 40 | 0.0233
c1ccc(-c2nn(-c3ccccc3)cc2-c2nc3ccccc3[nH]2)cc1 | > 40 | > 40 | 0.0559
COc1ccc(-c2nn(-c3ccc(S(N)(=O)=O)cc3)cc2-c2nc3ccccc3[nH]2)cc1 |  |  | 0.554
NS(=O)(=O)c1ccc(-n2cc(-c3nc4ccccc4[nH]3)c(-c3ccccc3)n2)cc1 |  |  | 0.0249
Fc1ccc(-c2nn(-c3ccccc3)cc2-c2nc3ccccc3[nH]2)cc1 | > 40 | > 40 | 
Brc1ccc(-c2nn(-c3ccccc3)cc2-c2nc3ccccc3[nH]2)cc1 |  | > 40 | 0.0551
COc1ccc(-c2nn(-c3ccccc3)cc2-c2nc3ccccc3[nH]2)cc1 | > 40 | > 40 | 0.0487
Clc1ccc(-c2nn(-c3ccccc3)cc2-c2nc3ccccc3[nH]2)cc1 | > 40 | > 40 | 0.0075
NS(=O)(=O)c1ccc(-n2cc(-c3nc4ccccc4[nH]3)c(-c3ccc(Br)cc3)n2)cc1 |  |  | 0.641
NS(=O)(=O)c1ccc(-n2cc(-c3nc4ccccc4[nH]3)c(-c3ccc(Cl)cc3)n2)cc1 |  |  | 0.0702
NS(=O)(=O)c1ccc(-n2cc(-c3nc4ccccc4[nH]3)c(-c3ccc(F)cc3)n2)cc1 |  |  | 0.0747
